Experiments:
[1] = tested on: YB1, MTA1, vimentin, and CD44; assay: Western blot and qPCR of invasion genes in PC3 cells; type: cell-based, human; conditions: starting at 6 hr of treatment
Protocol: Western blot analysis was performed as previously described (Hsieh et al., Cancer Cell 17:249-261 (2010)) with antibodies specific to phospho-AKT^S473 (Cell Signaling), AKT (Cell Signaling), phospho-p70S6K^T389 (Cell Signaling), phospho-rpS6^S240/244 (Cell Signaling), rpS6 (Cell Signaling), phospho-4EBP1^T37/46 (Cell Signaling), 4EBP1 (Cell Signaling), 4EBP2 (Cell Signaling), YB1 (Cell Signaling), CD44 (Cell Signaling), LEF1 (Cell Signaling), PTEN (Cell Signaling), eEF2 (Cell Signaling), GAPDH (Cell Signaling), vimentin (BD Biosciences), eIF4E (BD Biosciences), Flag (Sigma), β-actin (Sigma), MTA1 (Santa Cruz Biotechnology), Twist (Santa Cruz Biotechnology), rpL28 (Santa Cruz Biotechnology), HA (Covance) and rictor (Bethyl Laboratory).
RNA was isolated using the manufacturer's protocol for RNA extraction with TRIzol Reagent (Invitrogen) using the Pure Link RNA mini kit (Invitrogen). RNA was DNase-treated with Pure Link Dnase (Invitrogen). DNase-treated RNA was transcribed to cDNA with SuperScript III First-Strand Synthesis System for RT-PCR (Invitrogen), and 1 μl of cDNA was used to run a SYBR green detection qPCR assay (SYBR Green Supermix and MyiQ2, Biorad). Primers were used at 200 nM.

[2] = tested on: PC3 human prostate cancer cells; assay: Ribosome profiling: translational efficiency (ribosome footprint vs RNA-seq read density); type: cell-based; conditions: for PP242 TrlEff: 3-hour treatment with PP242 (2.5 μM) in PC3 cells;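 as to all read-outs here: Per-gene footprint-to-mRNA density ratio averaged per codon over the coding sequence, scaled so the median gene equals 1.0 after excluding regulated genes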
Protocol: Given the critical role for mTOR in prostate cancer, PC3 human prostate cancer cells, in which mTOR is constitutively hyperactivated, were used to delineate translationally controlled gene expression networks upon complete or partial mTOR inhibition. Ribosome profiling was optimized to assess quantitatively ribosome occupancy genome-wide in cancer cells.
Cells were subsequently treated with cycloheximide (100 μg ml^−1; Sigma) and detergent lysis was performed in the dish. The lysate was treated with DNase and clarified, and a sample was taken for RNA-seq analysis. Lysates were subjected to ribosome footprinting by nuclease treatment. Ribosome-protected fragments were purified, and deep sequencing libraries were generated from these fragments, as well as from poly(A) mRNA purified from non-nuclease-treated lysates. These libraries were analyzed by sequencing on an Illumina GAII.
Ribosome footprint and RNA-seq sequencing reads were aligned against a library of transcripts from the UCSC Known Genes database GRCh37/hg19. The first 25 nucleotides of each read were aligned using Bowtie and this initial alignment was then extended to encompass the full fragment-derived portion of the sequencing read while excluding the linker sequence. Read density profiles were then constructed for the canonical transcript of each gene, using only reads with 0 or 1 total mismatches between the read sequence and the reference sequence, comprised of the transcript fragment followed by the linker sequence. Footprint reads were assigned to an A site nucleotide at position +15 to +17 of the alignment, based on the total fragment length; mRNA reads were assigned to the first nucleotide of the alignment. The average read density per codon was then computed for the coding sequence of each transcript, excluding the first 15 and last 5 codons, which can display atypical ribosome accumulation.
Average read density was used as a measure of mRNA abundance (RNA-seq reads) and of protein synthesis (ribosome profiling reads). For most analyses, genes were filtered to require at least 256 reads in the relevant RNA-seq samples. Translational efficiency was computed as the ratio of ribosome footprint read density to RNA-seq read density, scaled to normalize the translational efficiency of the median gene to 1.0 after excluding regulated genes (log 2 fold-change+1.5 after normalizing for the all-gene median). Changes in protein synthesis, mRNA abundance and translational efficiency were similarly computed as the ratio of read densities between different samples, normalized to give the median gene a ratio of 1.0. This normalization corrects for differences in the absolute number of sequencing reads obtained for different libraries.

CC(C)n1nc(-c2cc3cc(O)ccc3[nH]2)c2c(N)ncnc21 [PP242]
expression of YB1, MTA1, vimentin, and CD44 at the protein but not transcript level [1]: selective decrease
PP242 TrlEff ([2]; gene ACD): −1.02
TrlEff ([2]; gene ACTG1): −1.40
TrlEff ([2]; gene AGRN): −1.29
TrlEff ([2]; gene ALKBH7): −1.27
TrlEff ([2]; gene AP2A1): −1.32
TrlEff ([2]; gene ARD1A): −1.05
TrlEff ([2]; gene ATP5G2): −1.01
PP242 TrlEff ([2]; gene C17orf28): −0.20
TrlEff ([2]; gene C21orf66): −1.03
PP242 TrlEff ([2]; gene CCNA1): 0.66
TrlEff ([2]; gene CCNI): −1.33
TrlEff ([2]; gene CD44): −1.29
TrlEff ([2]; gene CIRBP): −1.08
TrlEff ([2]; gene CLPTM1): −1.13
TrlEff ([2]; gene COL6A2): −1.29
TrlEff ([2]; gene CRTAP): −2.50
PP242 TrlEff ([2]; gene DDX51): −0.51
PP242 TrlEff ([2]; gene DGCR2): 0.02
TrlEff ([2]; gene ECSIT): −1.06
PP242 TrlEff ([2]; gene EEF1A1): −3.53
TrlEff ([2]; gene EEF1A2): −1.94
TrlEff ([2]; gene EEF1D): −2.37
TrlEff ([2]; gene EEF1G): −2.26
TrlEff ([2]; gene EEF2): −3.60
TrlEff ([2]; gene EIF3H): −1.54
TrlEff ([2]; gene EIF3L): −1.47
TrlEff ([2]; gene EIF4B): −2.27
TrlEff ([2]; gene EVPL): −0.79
TrlEff ([2]; gene FAM83H): −1.11
TrlEff ([2]; gene FAM128B): −1.47
TrlEff ([2]; gene FASN): −1.42
TrlEff ([2]; gene GLTSCR2): −2.12
TrlEff ([2]; gene GNB2L1): −2.35
PP242 TrlEff ([2]; gene GTPBP3): −0.83
TrlEff ([2]; gene HNRNPA1): −2.12
TrlEff ([2]; gene HSPA8): −2.25
TrlEff ([2]; gene IMPDH2): −1.33
TrlEff ([2]; gene LAMA5): −0.94
TrlEff ([2]; gene LMF2): −1.36
PP242 TrlEff ([2]; gene MAPK6): −0.29
PP242 TrlEff ([2]; gene MAPKAPK2): 0.92
TrlEff ([2]; gene MTA1): −1.09
TrlEff ([2]; gene NCLN): −0.76
PP242 TrlEff ([2]; gene NFATC21P): 0.35
PP242 TrlEff ([2]; gene NR2F1): −0.09
TrlEff ([2]; gene PABPC1): −2.09
TrlEff ([2]; gene PABPC4): −1.98
TrlEff ([2]; gene PACS1): −1.09
TrlEff ([2]; gene PFDN5): −1.38
TrlEff ([2]; gene PGLS): −1.11
TrlEff ([2]; gene PGM1): −1.35
TrlEff ([2]; gene PNKP): −0.79
PP242 TrlEff ([2]; gene PRKD3): 0.68
TrlEff ([2]; gene PTGES2): −0.65
TrlEff ([2]; gene RABGGTB): −1.46
PP242 TrlEff ([2]; gene RBPJ): −0.03
TrlEff ([2]; gene RPL3): −2.44
TrlEff ([2]; gene RPL4): −1.50
TrlEff ([2]; gene RPL7): −2.02
TrlEff ([2]; gene RPL7A): −2.30
TrlEff ([2]; gene RPL9): −1.59
TrlEff ([2]; gene RPL10): −2.46
TrlEff ([2]; gene RPL10A): −2.16
TrlEff ([2]; gene RPL11): −2.31
TrlEff ([2]; gene RPL12): −2.95
TrlEff ([2]; gene RPL13): −1.56
TrlEff ([2]; gene RPL13A): −3.10
TrlEff ([2]; gene RPL15): −1.20
TrlEff ([2]; gene RPL18A): −2.63
TrlEff ([2]; gene RPL19): −1.35
TrlEff ([2]; gene RPL21): −2.45
TrlEff ([2]; gene RPL22): −1.64
TrlEff ([2]; gene RPL24): −1.41
TrlEff ([2]; gene RPL26): −2.00
TrlEff ([2]; gene RPL27): −1.23
TrlEff ([2]; gene RPL27A): −2.53
TrlEff ([2]; gene RPL28): −2.54
PP242 TrlEff ([2]; gene RPL28): −3.48
TrlEff ([2]; gene RPL31): −2.10
TrlEff ([2]; gene RPL32): −2.33
TrlEff ([2]; gene RPL34): −2.63
TrlEff ([2]; gene RPL36A): −1.98
TrlEff ([2]; gene RPL37A): −2.38
TrlEff ([2]; gene RPL39): −2.41
PP242 TrlEff ([2]; gene RPL39): −2.53
TrlEff ([2]; gene RPL41): −1.28
TrlEff ([2]; gene RPLP0): −1.61
TrlEff ([2]; gene RPLP1): −2.06
TrlEff ([2]; gene RPLP2): −2.10
TrlEff ([2]; gene RPS2): −2.25
TrlEff ([2]; gene RPS3): −2.16
TrlEff ([2]; gene RPS3A): −2.17
TrlEff ([2]; gene RPS4X): −2.06
TrlEff ([2]; gene RPS5): −2.25
TrlEff ([2]; gene RPS7): −1151
TrlEff ([2]; gene RPS9): −2.27
TrlEff ([2]; gene RPS12): −3.00
TrlEff ([2]; gene RPS13): −1.54
TrlEff ([2]; gene RPS14): −1.50
TrlEff ([2]; gene RPS15): −1.19
TrlEff ([2]; gene RPS15A): −2.31
TrlEff ([2]; gene RPS19): −2.34
TrlEff ([2]; gene RPS20): −2.46
PP242 TrlEff ([2]; gene RPS20): −2.78
TrlEff ([2]; gene RPS21): −2.09
TrlEff ([2]; gene RPS25): −2.13
TrlEff ([2]; gene RPS27): −2.71
PP242 TrlEff ([2]; gene RPS27): −3.35
TrlEff ([2]; gene RPS27A): −1.61
TrlEff ([2]; gene RPS28): −2.67
PP242 TrlEff ([2]; gene SDCCAG10): 0.23
TrlEff ([2]; gene SLC19A1): −1.07
TrlEff ([2]; gene TKT): −1.58
TrlEff ([2]; gene TPT1): −1.94
TrlEff ([2]; gene TSC2): −1.09
TrlEff ([2]; gene UBA52): −1.62
PP242 TrlEff ([2]; gene UBTD2): 0.27
PP242 TrlEff ([2]; gene UCHL5): 0.40
PP242 TrlEff ([2]; gene VHL): 0.52
TrlEff ([2]; gene VIM): −2.38
TrlEff ([2]; gene YB1): −2.30

From patent US20190093170A1, “USE OF TRANSLATIONAL PROFILING TO IDENTIFY TARGET MOLECULES FOR THERAPEUTIC TREATMENT” (THE REGENTS OF THE UNIVERSITY OF CALIFORNIA, priority 2013, published 2019)
